Results as given in article PMC4874011, “Identification and functional characterization of the sulfate transporter gene GmSULTR1;2b in soybean” (BMC Genomics, 2016).

Test system: T1, GmSULTR1;2b
T1 construct: C-terminal STAS domain
Assay: […]-sulfate uptake in sul1 sul2 yeast cells, Michaelis-Menten fit
Type: cell-based, Glycine max
Settings: pH 6.0; proton-coupled uptake; yeast CP154-7A; labelled compound

## O=S(=O)(O)O [sulfate]
  Km: 9.5 ± 1.7 µM
